The values that follow come from patent US12304912B2, “Fused bicyclic RAF inhibitors and methods for use thereof” (Jazz Pharmaceuticals Ireland Limited, priority 2020, dated 2025).

Data set [1] can be described thus: Plasma protein binding assay, mouse plasma (mPPB). The data set is classed as in vitro ADME. Conditions: 5 μM, equilibrium dialysis 4 hours at 37° C. The method in brief:
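Equilibrium dialysis of 5 μM compound in previously frozen human or mouse plasma against phosphate buffer, 4 h at 37 °C. Both chambers quantified by LC-MS/MS; % free = (1−((PC−PF)/PC))×100.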
On the technique in general: Equilibrium dialysis compares concentrations on both sides of a semipermeable membrane.

Data set [2] can be described thus: Microsomal stability assay, human liver microsomes (HLM). The class given is in vitro ADME. The note with it: 0.5 mg/mL protein, 1 μM substrate, 37° C. The method in brief:
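Half-life and CLint come from the ln(% remaining)–time slope, with remaining compound quantified by LC-MS/MS after ice-cold solvent quench of timed samples. Incubations used 1 μM test compound and 0.5 mg·mL^−1 human or mouse liver microsomal protein at 37° C.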
A general note: Microsomes from liver hold many membrane-bound enzymes, among them those of drug oxidation.

Another data set deals with HCT-116 cells. The data set can be described thus: HCT-116 CellTiter-Glo 3D cell proliferation assay. The class given is cell-based. Conditions: Homo sapiens, HCT-116; HCT116 cells, 3D proliferation; read-out: 3D HCT116 pGI50 (converted). The procedure:
HCT-116 CellTiter-Glo 3D Cell Proliferation Assay
The human HCT-116 colorectal carcinoma cell line (ATCC CCL-247) endogenously expresses the KRAS^G13D mutation, which leads to enhanced survival and proliferative signaling. […] On the first day, HCT-116 cells were harvested, resuspended in growth medium (McCoys5A with Glutamax (Life Technologies 36600021) with 10% heat-inactivated fetal bovine serum (Sigma F9665)), and counted. Cells were plated in 100 μl per well in each well of a Corning 7007 96-well clear round bottom Ultra-Low Attachment plate (VWR 444-1020) to a final density of 1000 cells per well. Cells were seeded for pre- and post-treatment readouts. The cells were then incubated at 37° C. and 5% CO2 for 3 days (72 hours) to allow spheroid formation. After 72 hours, the plate seeded for a pre-treatment read was removed from the incubator to allow equilibration to room temperature for 30 minutes, before CellTitre-Glo® reagent was added to each well. The plates were incubated at room temperature for 5 minutes shaking at 300 rpm, followed by an incubation of 25 minutes on the benchtop before being read on the Envision reader (Perkin Elmer) as described below. On the same day, the cells plated for the post-treatment readout were dosed with compounds to produce a 9-point dose response, where the top concentration was 15 μM and following concentrations were at 1/2 log dilution intervals. These cells were subsequently incubated at 37° C. and 5% CO2 for another 4 days (96 hours). After 4 days, the plate was removed from the incubator to allow equilibration to room temperature for 30 minutes and treated with CellTitre Glo® reagent as stated above. […] The CellTitre Glo® reagent lyses the cells and contains luciferin and a luciferase (Ultra-Glo™ Recombinant Luciferase), which in the presence of ATP and oxygen can produce bioluminescence from luciferin. Therefore, plates were read on an EnVision reader (Perkin Elmer) and luminescence signals were recorded. Cell proliferation was determined on 4 days after dosing relative to the pre-treatment read. All data were analyzed using the Dotmatics or GraphPad Prism software packages. Inhibition of proliferation was assessed by determination of the GI50 value, which was defined as the concentration of compound required to decrease the level of cell proliferation by 50% when compared to DMSO control.

The next data set is described as follows: FeSSIF solubility assay. The class given is physicochemical. The note with it: fed state simulated intestinal fluid (FeSSIF), thermodynamic from solid, pH 5 acetate buffer, 37° C., read-out: FESSIF Sol. The essentials:
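FeSSIF (pH 5 acetate buffer, 1 mL) was added to 1.0 mg solid compound and shaken at 650 rpm and 37 °C for 24 h. After filtration, dissolved compound was quantified by LC-UV against a 250 μM calibration standard.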

Another data set concerns WiDr cells. The data set can be described thus: WiDr CellTiter-Glo 3D cell proliferation assay. The data set is classed as cell-based. The note with it: Homo sapiens; WiDr cells, 3D proliferation; read-out: 3D WiDr pGI50 (converted).

Molecules are shown by their SMILES. ≈ marks a conversion by molar mass, not a printed value. A value given as a limit tells only on which side of the number the result lay.

A word on the microsomal CLint: it is the capacity of the preparation to metabolise the compound, expressed as a volume cleared per time. With `CC(=O)Nc1cc(Oc2ccc3c(c2)CC(c2nc(-c4ccccc4)c[nH]2)CO3)ccn1` (stereo not drawn) [Compound 156, N-[4-[3-(4-phenyl-1H-imidazol-2-yl)chroman-6-yl]oxy-2-pyridyl]acetamide], in data set [1], the “mPPB (% free)” value stood at 0.4 % free. The microsomal CLint at 1 μM in data set [2] is 30.3 µL/min/mg. For the same molecule, the GI50 in the data set with HCT-116 cells is 89.1 nM; in the data set on WiDr cells, 269 nM. Besides, the solubility thermodynamic at 24 h in the data set “FeSSIF solubility assay” is 296 µg/mL (≈ 695 µM).

`CC1CC1C(=O)Nc1cc(Oc2ccc3c(c2)CC(c2nc(-c4ccccc4)c[nH]2)CO3)ccn1` (stereo not drawn) [Compound 157]: in data set [1], the “mPPB (% free)” value is listed as under 0.1 % free. The microsomal CLint at 1 μM in data set [2] was determined as 35.7 µL/min/mg. The GI50 with HCT-116 cells is 263 nM; in the data set with WiDr cells, 661 nM. Further, the solubility thermodynamic at 24 h in “FeSSIF solubility assay” is 116 µg/mL (≈ 249 µM).

For the molecule `O=C1CCc2c(Oc3ccc4c(c3)CN(c3nc5cc(C(F)(F)F)ccc5[nH]3)CC4)ccnc2N1` [Compound 160], the “mPPB (% free)” value in data set [1] is given as under 0.1 % free. The microsomal CLint at 1 μM in data set [2] came to 2.7 µL/min/mg. In addition, the GI50 in the data set on HCT-116 cells is 617 nM; with WiDr cells, 2090 nM. For the same molecule, the solubility thermodynamic at 24 h in the data set “FeSSIF solubility assay” is 3 µg/mL (≈ 6.26 µM).
